target: T1, mitochondrial diazepam binding inhibitor receptor (MDR) (Rattus norvegicus, UniProt P16257); assay: MDR Receptor Binding Assay ([3H]PK11195 binding to crude mitochondria fraction of rat cerebral cortex); settings: inhibition of [3H]PK11195 (2 nM) binding; rat cerebral cortex crude mitochondria 1.0 mg protein/ml; 4° C., 90 minutes; non-specific: 10 μM PK11195
T1 construct: Crude mitochondria fractions prepared from rat cerebral cortex were used as a receptor sample; from tissue; host or cells: rat cerebral cortex, crude mitochondria fraction
Procedure: Experiment [MDR Receptor Binding Assay]
Crude mitochondria fractions prepared from rat cerebral cortex were used as a receptor sample, and [^3 H]PK11195 was used as a [^3 H]-labeled ligand.
A binding assay using the [^3 H]-labeled ligand was carried out according to the following method as described in Journal of Pharmacology and Experimental Therapeutics, 262, 971(1992).
Preparation of Receptor Sample: Rat cerebral cortex was homogenized using a Teflon-coated homogenizer in a 10 mM HEPES buffer (pH 7.4) containing 0.32 M sucrose in ten volumes of the wet weight. The homogenate was centrifuged at 900× g for 10 minutes, and the resulting supernatant was centrifuged at 9,000× g for 10 minutes. The precipitate was suspended in a HEPES buffer to give a protein concentration of 1 mg/ml, and centrifuged at 12,000× g for 10 minutes. The resulting precipitate was suspended in a 50 mM HEPES buffer (pH 7.4) to give a crude mitochondria fraction.
MDR Binding Assay: Mitochondria sample (1.0 mg protein/ml), [^3 H]PK11195 (2 nM) and the test drug were reacted at 4° C. for 90 minutes.
After completion of the reaction, the reaction mixture was filtered with suction through a glass filter (GF/B) treated with 0.3% polyethyleneimine,and the radioactivity on the filter was measured by a liquid scintillation spectrometer.
The binding at the reaction in the presence of 10 μM PK11195 was defined as non-specific binding of [^3 H]PK11195, and the difference between total binding and non-specific binding was defined as specific binding.

T1 sequence (P16257 whole entry): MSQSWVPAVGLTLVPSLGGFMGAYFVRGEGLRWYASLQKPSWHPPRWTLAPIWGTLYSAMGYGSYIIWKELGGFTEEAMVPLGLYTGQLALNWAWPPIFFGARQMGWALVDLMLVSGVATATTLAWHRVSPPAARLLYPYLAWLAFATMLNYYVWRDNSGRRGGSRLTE

SMILES | IC50
CCCCCCN(CCCCCC)C(=O)C1c2c([nH]c3ccccc23)-c2ccccc2N1C(C)=O (stereo not drawn) [Compound 28] | 12.6 nM
CCCN(CCC)C(=O)C1Sc2ccccc2-c2[nH]c3ccccc3c21 (stereo not drawn) [Compound 05, N,N-dipropyl-6,11-dihydro-5-thia-11-aza-benzo[a]fluoren-6-carboxamide] | 0.368 nM
CCCN(CCC)C(=O)C1Cc2ccccc2-c2nc3ccccc3n21 (stereo not drawn) [Compound 25] | 73.9 nM
CCCN(CCC)C(=O)C1c2c([nH]c3ccccc23)-c2ccccc2S1(=O)=O (stereo not drawn) [Compound 21, N,N-dipropyl-6,11-dihydro-5-thia-11-aza-benzo[a]fluoren-6-carboxamide 5,5-dioxide] | 1.12 nM
CCCCCCN(CCCCCC)C(=O)C1Cc2ccccc2-c2nc3ccccc3n21 (stereo not drawn) [Compound 26, N,N-dihexyl-5,6-dihydro-benzo[4,5]imidazo[2,1-a]isoquinoline-6-carboxamide] | 42.3 nM
COCCN(CCOC)C(=O)C1Sc2ccccc2-c2[nH]c3ccccc3c21 (stereo not drawn) [Compound 15] | 4.98 nM
CCN(CC)C(=O)C1Sc2ccccc2-c2[nH]c3ccccc3c21 (stereo not drawn) [Compound 04] | 0.443 nM
CCCNC(=O)C1Sc2ccccc2-c2[nH]c3ccccc3c21 (stereo not drawn) [Compound 02] | 55.9 nM
CN(C)C(=O)C1Sc2ccccc2-c2[nH]c3ccccc3c21 (stereo not drawn) [Compound 03] | 38.5 nM

More lines, now with the values ahead:

IC50 | SMILES
1.23 nM | CCCCCCN(CCCCCC)C(=O)C1c2c([nH]c3ccccc23)-c2ccccc2S1(=O)=O (stereo not drawn) [Compound 22]
13.9 nM | CCCCCCN(CCCCCC)C(=O)C1Sc2ccccc2-c2[nH]c3ccc(C)cc3c21 (stereo not drawn) [Compound 11]
1.35 nM | CCCCCCN(CCOCCC)C(=O)C1Sc2ccccc2-c2[nH]c3ccccc3c21 (stereo not drawn) [Compound 14]
13.8 nM | CCCCCCN(CCCCCC)C(=O)C1Sc2ccccc2-c2[nH]c3ccc(F)cc3c21 (stereo not drawn) [Compound 09]
42.3 nM | CCCCCCN(CCCCCC)C(=O)C1Sc2ccccc2-c2[nH]c3ccccc3c21 (single isomer, unassigned; (-)) [Compound 07, (-)-N,N-Dihexyl-6,11-dihydro-5-thia-11-aza-benzo[a]fluoren-6-carboxamide]
20.1 nM | CCCCCCN(CCCCCC)C(=O)C1Sc2ccccc2-c2[nH]c3ccc(Cl)cc3c21 (stereo not drawn) [Compound 10]
35.1 nM | CCCCCCN(CCCCCC)C(=O)C1c2c([nH]c3ccccc23)-c2ccccc2N1C=O (stereo not drawn) [Compound 27]
1.35 nM | CCCCCCN(CCCCCC)C(=O)C1Sc2ccccc2-c2c1c1ccccc1n2C (stereo not drawn) [Compound 16, N,N-Dihexyl-6,11-dihydro-11-methyl-5-thia-11-aza-benzo[a]fluoren-6-carboxamide]
2.15 nM | CCCCCCN(CCCCCC)C(=O)C1Sc2ccccc2-c2[nH]c3ccccc3c21 (single isomer, unassigned; (+)) [Compound 08, (+)-N,N-Dihexyl-6,11-dihydro-5-thia-11-aza-benzo[a]fluoren-6-carboxamide]
22.1 nM | CCCCCCN(CCCCCC)C(=O)C1Sc2ccccc2-c2[nH]c3c(F)cc(F)cc3c21 (stereo not drawn) [Compound 12]
3.76 nM | CCCCCCN(CCCCCC)C(=O)C1Sc2ccccc2-c2[nH]c3ccccc3c21 (racemic) [Compound 06, N,N-Dihexyl-6,11-dihydro-5-thia-11-aza-benzo[a]fluoren-6-carboxamide]
1.35 nM | CCCCCCN(CCCCCC)C(=O)C1Cc2ccccc2-c2[nH]c3ccccc3c21 (stereo not drawn) [Compound 23]

Source: US6281355A, “Nitrogen-containing tetracyclic compounds” (Taisho Pharmaceutical Co., Ltd., priority 1997, dated 2001)
